Experimental data published in patent US11091429B2, “Organic compounds” (Givaudan SA, priority 2012, dated 2021).
Entries after “also recorded” stand apart in the source; their conditions may differ.

What was measured:
Tasting in butter = conditions: 1 ppm in Blueband butter 82% fat 1.5% salt
Experimental: (§1) The following formulations were prepared and tasted by trained panelists.
Blueband 82% fat 1.5% salt

[1] = Tasting in low fat salad dressing; conditions: 0.5 ppm in low fat salad dressing (13.6% fat)
Experimental: as §1
low fat salad dressing (13.6% Fat, 8%, carbohydrates (of which 5.3% sugar))
(§2) Samples were prepared and evaluated by expert tasters. Tasters were asked to describe the samples focusing on authentic taste, mouthfeel, fullness, salty-ness, salivation, umami, sweetness, juiciness, richness, long lastingness and fattiness.
Calve Salad Dressing Low Fat (13.6% Fat):
Base is Calve salad dressing (market product)
Samples were prepared and evaluated by expert tasters. Tasters were asked to describe the samples focusing on authentic taste, mouthfeel, fullness, salivation, salty-ness, umami, sweetness, juiciness, richness, long lastingness and fattiness.
Low fat salad dressing (13.6% Fat)

Tasting of baked pizza = conditions: 0.5 PPM in the crust and 0.5 PPM in the tomato sauce, baked at 200 degrees Celsius
Experimental: as §1
Differentiator high temperature 100-250 degrees Celsius in hot air baking process
C18:2 gaba @ 0.5 PPM in the crust and @ 0.5 PPM in the tomato sauce
The pizza was topped off with cheese and baked in a hot air oven @ 200 degrees Celsius

[2] = Tasting in yoghurt, cream flavoured; conditions: 2 ppm, cream flavour 0.03%
Experimental: Yoghurt Cream Flavoured, Non-Sweetened and Different Fat Levels
In a Yoghurt containing 0% 1.5% and 3% fat, flavoured with proprietary cream flavour dosed at 0.03%, C18:2-gaba was added at 2 ppm. Samples were evaluated by expert tasters. Tasters were asked to describe the samples focusing on authentic taste, acidity, mouthfeel, fullness, salivation, sweetness, juiciness, richness, long lastingness and fattiness.

[3] = Tasting in Activa strawberry yoghurt; conditions: 2 ppm, 13.5% sugar, 3.2% fat
Description: Activa Strawberry Yoghurt
In a Full fat, Activa strawberry flavoured yoghurt containing 13.5% sugar, 3.2% fat C18:2-gaba and C18:0-leu at 2 ppm

Test on Tang = conditions: 0.5 ppm, orange flavoured Tang
Experimental: In an orange flavoured Tang powdered soft drink (market product) sweetened with sucrose plus high intensity sweetener and containing citric acid, C18:2-gaba and C18:2-pro were tested.
All samples were evaluated by expert tasters. Tasters were asked to describe the samples focusing on authentic taste, mouthfeel & body, enhancement, richness, juiciness, long lastingness, salivation, sweetness, masking off notes of high intensity sweetener
Base is Orange Flavoured Tang

[4] = Tasting in mango still beverage, 6% clear mango juice; conditions: 1 ppm; 6% clear mango juice (full juice)
Experimental: Mango Flavoured Still Beverage Containing Different Levels of Juice,
In a Mango flavoured still beverage, sweetened with 8% sucrose and containing 0.1% citric acid and 1%, 4% and 6% clear mango juice flavoured with a proprietary Mango flavour @ 0.05%, C18:2-gaba and C18:2-Pro were added, as such (separate) and in combination.
All samples were evaluated by expert tasters. Tasters were asked to describe the samples focusing on authentic taste, juicy mouthfeel, enhancement, richness, juiciness, long lastingness, salivation, sweetness.
In a Mango-flavoured still beverage, sweetened with 8% sucrose & containing 0.1% citric acid and 6% clear mango juice flavoured with Mango flavour@0.05%, C18:2-gaba and C18:2-Pro were added, as such (separate) and in combination.
Base is water, 8% sucrose, 0.1% citric acid, 6% clear mango juice (full juice), flavoured with Mango flavor, dosed at 0.05%.

[5] = Test on Baileys cream liqueur; conditions: 1 ppm, 17% alcohol
Experimental: Test on Baileys Cream Liqueur:
In Baileys cream liqueur (Market Product) containing 17% alcohol, carbohydrates 25% and 13% fat C18:2-gaba was added at 1 ppm.
Samples were evaluated by expert tasters. Tasters were asked to describe the samples focusing on authentic taste, alcohol impact, mouthfeel, fullness, salivation, sweetness, bitterness, richness, long lastingness and fattiness.
Base is Baileys cream liqueur
(§3) Samples were evaluated by expert tasters. Tasters were asked to describe the samples focusing on authentic taste, mouthfeel, fullness, salty-ness, salivation, umami, sweetness, juiciness, richness, long lastingness and fattiness.
Base: Baileys cream liqueur (containing 17% alcohol, carbohydrates 25% and 13% fat)

Test on Breezer Orange = conditions: 0.5 ppm, 4% alcohol
Experimental: Samples were evaluated by expert tasters. Tasters were asked to describe the samples focusing on authentic taste, alcohol impact, juiciness, mouthfeel, fullness, salivation, sweetness, bitterness, richness, long lastingness and fattiness.

Test on menthol fondant = conditions: 2 ppm; fondant 65%, sugar syrup 34%, menthol flavour 1%
Experimental: as §2
Test on Menthol Fondant (1%1
Base is Fondant 65%, sugar syrup 34% and a proprietary menthol flavour at 1%

[6] = Tasting in strawberry drink; conditions: 2 ppm; 7% sucrose, 0.1% citric acid, strawberry flavour 0.015%
Method in brief: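 Expert tasters profiled samples for authentic taste, mouthfeel, fullness, saltiness, salivation, umami, sweetness, juiciness, richness, long-lastingness and fattiness. Base: water with 7% sucrose, 0.1% citric acid and a proprietary strawberry flavour at 0.015%.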

[7] = Tasting in vanilla milk 0.15% fat; conditions: 2 ppm, 4% sucrose, Vaniline 10 ppm + vanilla extract 0.03%
Method in brief: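 Expert panel tasted samples in 0.15% fat milk sweetened with 4% sucrose and flavoured with vaniline at 10 ppm plus vanilla extract at 0.03%. Descriptors covered authentic taste, mouthfeel, fullness, saltiness, salivation, umami, sweetness, juiciness, richness, long-lastingness and fattiness.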

[8] = Test in pear flavoured drink; conditions: 1 ppm; water, 7% sugar (8% elsewhere in the source), 0.1% citric acid, pear flavour 0.025%
[9] = Test in pineapple flavoured drink; conditions: 1 ppm; water, 8% sugar, 0.1% citric acid, pineapple flavour 0.03%
Experimental: as §2
Test in Pineapple Flavoured Drink:
Base is water, 8% sugar, 0.1% citric acid and proprietary pineapple flavour at 0.03%
as §3

Test on mouthwash = conditions: 1 ppm, Paradontax alcohol free mouthwash
Experimental: as §3
Base: Paradontax alcohol free mouthwash.

CCCCC/C=C\C/C=C\CCCCCCCC(=O)NCCCC(=O)O [C18:2-gaba]
tasting result (Tasting in butter): more authentic butter taste, with more mouthfeel
tasting result [1]: much fuller, creamy, rich, less acidic
tasting result ([1]; listed as C18:2 gaba): better mouthfeel that was impressively creamy
tasting result (Tasting of baked pizza): The crust was less dry, more succulent and the tomato was richer, sweeter and the total lingering aftertaste was very rich and pleasant
tasting result ([2]; yoghurt 0% fat): less acidic, slight creamy aftertaste
tasting result ([2]; yoghurt 1.5% fat): very creamy, thick, nice long lasting, whipped cream note
tasting result ([2]; yoghurt 3% fat): less acidic, much more creamy, very long lasting creamy aftertaste
tasting result [3]: very creamy, full and fresh strawberry
tasting result (Test on Tang): enhances sweet juicy orange notes, enhanced mouthfeel; also recorded: the off-notes of the high intensity sweetener were suppressed
tasting result [4]: fatty skin-like, very thick juicy, authentic mango, long lasting mango taste, rich
tasting result [5]: strongly enhanced alcohol effect, more cocoa, very creamy and long lasting aftertaste
tasting result (Test on Breezer Orange): more alcoholic, sweeter, more juicy orange, less soapy
tasting result (Test on menthol fondant): increased menthol impact, stronger cooling more sweet, long lasting, fresh
tasting result [6]: fatty mouthfeel, creamy strawberry, fruity and juicy
tasting result [7]: fatty, long lasting authentic vanilla, vanilla bean taste is enhanced
tasting result [8]: long lasting, juicy and fatty skin like very authentic, like eating the fruit instead of drinking a drink
tasting result [9]: very ripe, jammy, long lasting and sweet
tasting result (Test on mouthwash): much less bitter, very sweet, smooth, less burning, round spicy, more minty and more cooling
